Consider 3 compounds from patent US5013743A, “Selective antibacterial agent against campytobacter” (Takeda Chemical Industries, Ltd., priority 1989, dated 1991).

Values after ≈ are worked out from the molar mass of the structure shown. A value given as a limit tells only on which side of the number the result lay.

Broadly, the MIC is the lowest concentration found to suppress growth. A low value points to inhibition by little substance.

Data set [1] relates to C. pylori NCTC 11637. The data set is described as follows: MIC, agar-plate dilution method, test strain B. The class given is cell-based. To be noted: Helicobacter pylori, NCTC11637, 72 h, Brucella agar, 37° C., 3 days. As to the method:
(§1) The minimum inhibitory concentration (MIC) of each compound was determined by the agar-plate dilution method based on the standard method advocated by Japan Society of Chemotherapy [cf: Chemotherapy, Jan. '81, p. 76]. The volume of agar medium per plate was 20 ml. Each of the test compounds was dissolved in dimethylsulfoxide at a concentration of 80 mg/ml or 40 mg/ml, and diluted 10 times with sterile distilled water. Furthermore, the aqueous solution of 8 mg/ml or 4 mg/ml was diluted serially 2-fold with sterile distilled water. To 2 ml of the diluted solution was added 18 ml of Brucella agar (BBL Microbiology Systems, Becton Dickinson and Co., Cockeysville, Md. 21030) containing 7% defibrinated horse blood (manufactured by Nippon Bio-supp. Center) and mixed well. Test strains frozen at -80° C. in Brucella broth (BBL) containing 10% horse serum were thawed and inoculated on a Brucella agar slant medium containing 7% defibrinated horse blood. The medium was incubated anaerobically at 37° C. for 3 days in a jar containing a piece of sponge sufficiently impregnated with water and Campy Pak™ (BBL). The organisms grown on the slant medium were collected and suspended in a Brucella broth to correspond to the turbidity of about 10^8 CFU/ml of common bacteria. One platinum loop of inoculum was streaked on the medium plates for determination. The plates were incubated under the same conditions as described above.

Data set [2] has as its system C. pylori CPY 00111. The data set is described as follows: MIC, agar-plate dilution method, test strain D. The data set is classed as cell-based. To be noted: Helicobacter pylori, CPY00111, 72 h, Brucella agar, 37° C., 3 days. On the procedure: as §1
The subject of data set [3] is C. pylori KS 13. The data set is described as follows: MIC, agar-plate dilution method, test strain E. The class given is cell-based. As to conditions: Helicobacter pylori, KS13, 72 h, Brucella agar, 37° C., 3 days. On the procedure: as §1
For data set [4], the system named is C. pylori CLO 1. The data set can be described thus: MIC, agar-plate dilution method, test strain F. The class given is cell-based. To be noted: Helicobacter pylori, CLO1, 72 h, Brucella agar, 37° C., 3 days. As to the method:
as §1

Data set [5] has as its system C. pylori CLO 6. The data set is described as follows: MIC, agar-plate dilution method, test strain G. The data set is classed as cell-based. As to conditions: Helicobacter pylori, CLO6, 72 h, Brucella agar, 37° C., 3 days. As to the method:
as §1

The subject of data set [6] is C. freundii IFO 12681. The data set is described as follows: MIC, standard agar-plate dilution method, aerobic common bacteria. The class given is cell-based. As to conditions: Citrobacter freundii, IFO12681. An excerpt:
(§2) Antibacterial activities of some compounds of the present invention against aerobic common bacteria were examined.

The subject of data set [7] is C. freundii TN 474. The data set is described as above. The class given is cell-based. As to conditions: Citrobacter freundii, TN474.
Text: as §2

The test system of data set [8] is K. oxytoca TN 1711. The description is as above. The data set is classed as cell-based. To be noted: Klebsiella oxytoca, TN1711.
Text: as §2

For data set [9], the system named is P. aeruginosa GN 3407. The data set is described as above. The data set is classed as cell-based. As to conditions: Pseudomonas aeruginosa, GN3407.
Text: as §2

Data set [10] concerns S. faecium IFO 3128. Described as above. The data set is classed as cell-based. As to conditions: Enterococcus faecium, IFO3128.
Text: as §2

Data set [11] concerns S. pneumoniae Type 1. Described as above. The data set is classed as cell-based. As to conditions: Streptococcus pneumoniae, TYPE1.
Text: as §2

For data set [12], the system named is S. pyogenes E-14. The data set is described as above. As to conditions: Streptococcus pyogenes, E14. The class given is cell-based.
Text: as §2

Data set [13] has as its system genus Campylobacter. The data set can be described thus: Antibacterial activity against the genus Campylobacter (Tables 2 and 3, summary in words). The class given is cell-based, Campylobacter pylori. To be noted: fluorinated alkyl derivatives vs other derivatives, Table 2 and Table 3. On the procedure: as §1
The format of data set [14] is in vivo. As to conditions: oral, mice, 200 mg/kg.
Data set [15] can be described thus: Inspection of lyophilized compound (1) for solubility, appearance and content immediately after dissolution. The class given is physicochemical. As to conditions: for Appearance / Clarity / Content: after dissolution; for Content: taken as 100.0% (HPLC). As to the method: (§3) The resulting filtrate was filled in 1 ml portions into vials of a 12 cm^3 capacity, followed by lyophilization by means of the conventional technique.
(§4) *As measured by use of highperformance liquid chromatography (HPLC),
(§5) whereby the content determined immediately after preparation was taken as
(§6) Chromatographic conditions of HPLC:
(§7) Nucleosil 5 C18 (supplied by GasChro Kogyo K.K. of Japan) 4.0 mm
(§8) Methanol:water:triethylamine (60:40:1, pH 7)
(§9) UV spectrophotometry at 285 mm

Data set [16] is described as follows: Stability of the lyophilized compound (1) after being dissolved in vials, storage for 24 hours. The data set is classed as physicochemical. On the procedure:
as §3, §4, §5, §6, §7, §8, §9

`Cc1c(OCC(F)(F)F)ccnc1CSc1nc2ccccc2[nH]1` [Compound 6]: the MIC in [1] is 12.5 µg/mL (≈ 35.4 µM); in data set [2] it was 3.13 µg/mL (≈ 8.86 µM); in data set [3], 12.5 µg/mL (≈ 35.4 µM); in data set [4], 25 µg/mL (≈ 70.7 µM); in [5], 6.25 µg/mL (≈ 17.7 µM); in [6] it was more than 400 µg/mL. The MIC in data set [7], in [8], in [9], in data set [10], in data set [11] and in data set [12] was more than 400 µg/mL throughout. Moreover, the “antibacterial activity compared with other derivatives” value in [13] was “stronger antibacterial activity”. Moreover, the dead animals entry in data set [14] is on record as “no dead animals”.
Turning to `COc1ccc2[nH]c([S+]([O-])Cc3ncc(C)c(OC)c3C)nc2c1` (stereo not drawn) [Compound 2], the MIC is 25 µg/mL (≈ 72.4 µM) in data set [1]; 12.5 µg/mL (≈ 36.2 µM) in data set [2]; 25 µg/mL (≈ 72.4 µM) in [3]; 25 µg/mL (≈ 72.4 µM) in data set [4]; 12.5 µg/mL (≈ 36.2 µM) in data set [5]; more than 400 µg/mL in [6]. The minimal inhibitory concentration (MIC) in [7], in data set [8], in data set [9], in data set [10], in data set [11] and in data set [12] was more than 400 µg/mL in each case.
For `Cc1c(OCC(F)(F)F)ccnc1C[S+]([O-])c1nc2ccccc2[nH]1` (stereo not drawn) [Compound 1], the MIC is 6.25 µg/mL (≈ 16.9 µM) in data set [1]; 6.25 µg/mL (≈ 16.9 µM) in [2]; 6.25 µg/mL (≈ 16.9 µM) in data set [3]; 6.25 µg/mL (≈ 16.9 µM) in [4]; 3.13 µg/mL (≈ 8.47 µM) in data set [5]; more than 400 µg/mL in data set [6]. In addition, the MIC in data set [7], in data set [8], in data set [9], in data set [10], in data set [11] and in data set [12] was more than 400 µg/mL throughout. Moreover, in data set [13], the “antibacterial activity compared with other derivatives” value is listed as “stronger antibacterial activity”. In addition, the pH after dissolution in data set [15] (Solvent A) is 8.7; in data set [15] (Solvent B), 9.0; in data set [15] (Solvent C), 9.0; in data set [15] (Solvent D), 9.0. Further, the Solubility entry is listed as “Good” in [15] (Solvent A (N-methylglucamine, HCl, propylene glycol, ethanol)); “Good” in [15] (Solvent B (N-methylglucamine, HCl, polyethylene glycol 400, ethanol, water)); “Good” in data set [15] (Solvent C (N-methylglucamine, HCl, ethanol, propylene glycol, water)); “Good” in [15] (Solvent D (N-methylglucamine, HCl, polyethylene glycol 400, water)). Further, the dissolution speed entry in data set [15] (Solvents A to D) was “dissolved quickly”. In data set [15] (Solvents A to D), the “solubilities of the lyophilized powder in all of these solvents” value was “excellent solubilities”. Further, the Appearance entry is “Colorless” in data set [15] (Solvent A); “Colorless” in data set [15] (Solvent B); “Colorless” in data set [15] (Solvent C); “Colorless” in [15] (Solvent D); “Slightly to lightly green-yellow” in [16] (after storage at 5° C. for 24 hrs., Solvents A to D). Further, the Clarity entry in [15] (Solvent A) is “Clear”; in data set [15] (Solvent B), “Clear”; in data set [15] (Solvent C), “Clear”; in data set [15] (Solvent D), “Clear”; in data set [16] (after storage at 5° C. for 24 hrs., Solvent A), “Clear”; in data set [16] (after storage at 5° C. for 24 hrs., Solvent B), “Clear”. Moreover, the Clarity result in data set [16] (after storage at 5° C. for 24 hrs., Solvent C) is given as “Clear”; in [16] (after storage at 5° C. for 24 hrs., Solvent D), “Clear”. Moreover, the Content in data set [15] (Solvent A), in data set [15] (Solvent B), in data set [15] (Solvent C) and in data set [15] (Solvent D) was 100% throughout. In [16] (Solvents A to D, 24 hours), the “change in content of compound (1)” value was “decrease slightly”. In addition, the “change in the stage of solution” value in data set [16] (Solvents A to D, 24 hours) was “no change in the stage of solution”. Further, the changes in appearance entry in [16] (immediately after dissolution and after storage for 24 hours) is “slight changes in appearance”.
